Two molecules from publication PMC10884759, “Decreased pyruvate dehydrogenase activity in Tafazzin-deficient cells is caused by dysregulation of pyruvate dehydrogenase phosphatase 1 (PDP1)” (The Journal of Biological Chemistry, 2024) can be followed below.

This experiment addresses T1, PDP1 (PDH phosphatase 1; PDP1-His6) (Mus musculus, UniProt Q3UV70).
T1 construct: mature polypeptide (transit peptide removed; forward primer encodes ASTPQKFY after start Met), C-terminal His6 from pET-28a, E. coli BL21(DE3) with pGro7 chaperones, Ni-NTA purified
T1 sequence (Q3UV70 72-538): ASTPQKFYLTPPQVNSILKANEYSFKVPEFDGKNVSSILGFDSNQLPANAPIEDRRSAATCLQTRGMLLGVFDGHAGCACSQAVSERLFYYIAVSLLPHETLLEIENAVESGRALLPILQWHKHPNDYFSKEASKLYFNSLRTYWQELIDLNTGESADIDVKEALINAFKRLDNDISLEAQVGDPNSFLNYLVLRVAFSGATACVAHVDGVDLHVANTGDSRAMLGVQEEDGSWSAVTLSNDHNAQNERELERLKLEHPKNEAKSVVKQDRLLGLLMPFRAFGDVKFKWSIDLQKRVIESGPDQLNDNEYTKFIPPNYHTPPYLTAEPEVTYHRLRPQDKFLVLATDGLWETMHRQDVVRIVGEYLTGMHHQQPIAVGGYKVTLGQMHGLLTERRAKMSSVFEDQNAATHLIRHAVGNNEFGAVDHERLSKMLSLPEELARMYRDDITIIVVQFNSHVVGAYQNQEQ
In words: protein-lipid overlay on PVDF, anti-His immunoblot. The experiment is classed as binding. The following applies: lipid spotted at 31.25-500 μM, 1 μl; pH 7.5, 4 °C overnight, 3% BSA. A general note: A western blot detects proteins with antibodies after separation by electrophoresis.

Take `CCCCC/C=C\C/C=C\CCCCCCCC(=O)OC[C@H](COP(=O)(O)OCC(O)COP(=O)(O)OC[C@@H](COC(=O)CCCCCCC/C=C\C/C=C\CCCCC)OC(=O)CCCCCCC/C=C\C/C=C\CCCCC)OC(=O)CCCCCCC/C=C\C/C=C\CCCCC` (some centres unmarked) [TLCL]: the “protein-lipid overlay on PVDF, anti-His immunoblot” value was “only PDP1 was shown to bind with TLCL (Fig. 2B)”.

Regarding `CCCCCCCC/C=C\CCCCCCCC(=O)OC[C@H](COP(=O)(O)O)OC(=O)CCCCCCC/C=C\CCCCCCCC` [phosphatidic acid], the “protein-lipid overlay on PVDF, anti-His immunoblot” value is reported as “PA is also bound to PDP1 (and to E1)”.
